The values below come from patent publication US20230077362A1 (CORTEVA AGRISCIENCE LLC, priority 2019, published 2023).

Experiment [1] has as its system Beet Armyworm (Spodoptera exigua) ("BAW"), second instar larvae. Description: Bioassay on beet armyworm (BAW), 128-well diet tray assay. Type of experiment: in vivo. Particulars: Spodoptera exigua, read-out: BAW (Biological Results, rating). The procedure, abridged: (§1)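 Covered trays were held at 25° C. under a 14:10 light-dark cycle for five to seven days. Percent mortality was then scored in each well, and activity across eight wells was averaged.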

Experiment [2] deals with Cabbage Looper (Trichoplusia ni) ("CL"), second instar larvae. Description: Bioassay on cabbage looper (CL), 128-well diet tray assay. Particulars: Trichoplusia ni, read-out: CL (Biological Results, rating). It is filed as in vivo. The procedure, abridged:
as §1

`Cc1ccc(C(C)C)c(N2C(=O)CS/C2=N\C(=O)Nc2ccc(-c3ncn(-c4ccc(OC(F)(F)F)cn4)n3)cc2C(F)(F)F)c1` [Compound J260, (Z)-1-(3-(2-Isopropyl-5-methylphenyl)-4-oxothiazolidin-2-ylidene)-3-(4-(1-(5-(trifluoromethoxy)pyridin-2-yl)-1H-1,2,4-triazol-3-yl)-2-(trifluoromethyl)phenyl)urea]: the pest or weed control at 50 µg/cm2 in experiment [1] and in experiment [2] was 50 to 100% each time.

In the case of `CC(C)c1cc(F)c(N(C)C)cc1N1C(=O)CS/C1=N\C(=O)Nc1ccc(-c2ncn(-c3ccc(OC(F)(F)F)cn3)n2)cc1F` [Compound J261, (Z)-1-(3-(5-(Dimethylamino)-4-fluoro-2-isopropylphenyl)-4-oxothiazolidin-2-ylidene)-3-(2-fluoro-4-(1-(5-(trifluoromethoxy)pyridin-2-yl)-1H-1,2,4-triazol-3-yl)phenyl)urea], the pest or weed control at 50 µg/cm2 in experiment [1] and in experiment [2] was 50 to 100% in each case.

Consider `CN(C)c1ccc(C(F)(F)F)c(N2C(=O)CS/C2=N\C(=O)Nc2ccc(-c3ncn(-c4ccc(OC(F)(F)F)cn4)n3)cc2F)c1` [Compound J262, (Z)-1-(3-(5-(Dimethylamino)-2-(trifluoromethyl)phenyl)-4-oxothiazolidin-2-ylidene)-3-(2-fluoro-4-(1-(5-(trifluoromethoxy)pyridin-2-yl)-1H-1,2,4-triazol-3-yl)phenyl)urea], for which the pest or weed control at 50 µg/cm2 in experiment [1] and in experiment [2] was 50 to 100% throughout.

Regarding `CN(C)c1ccc(OCC(F)(F)F)c(N2C(=O)CS/C2=N\C(=O)Nc2ccc(-c3ncn(-c4ccc(OC(F)(F)F)cn4)n3)cc2F)c1` [Compound J263, (Z)-1-(3-(5-(Dimethylamino)-2-(2,2,2-trifluoroethoxy)phenyl)-4-oxothiazolidin-2-ylidene)-3-(2-fluoro-4-(1-(5-(trifluoromethoxy)pyridin-2-yl)-1H-1,2,4-triazol-3-yl)phenyl)urea], the pest or weed control at 50 µg/cm2 in experiment [1] and in experiment [2] was 50 to 100% in each case.

Take `Cc1ccc(OCCC(F)(F)F)c(N2C(=O)CS/C2=N\C(=O)Nc2ccc(-c3ncn(-c4ccc(OC(F)(F)F)cn4)n3)cc2C#N)c1` [Compound J264, (Z)-1-(2-Cyano-4-(1-(5-(trifluoromethoxy)pyridin-2-yl)-1H-1,2,4-triazol-3-yl)phenyl)-3-(3-(5-methyl-2-(3,3,3-trifluoropropoxy)phenyl)-4-oxothiazolidin-2-ylidene)urea]: the pest or weed control at 50 µg/cm2 in experiment [1] and in experiment [2] was 50 to 100% each time.

For the compound `Cc1ccc(COCC(F)(F)F)c(N2C(=O)CS/C2=N\C(=O)Nc2ccc(-c3ncn(-c4ccc(OC(F)(F)F)cn4)n3)cc2C#N)c1` [Compound J265, (Z)-1-(2-Cyano-4-(1-(5-(trifluoromethoxy)pyridin-2-yl)-1H-1,2,4-triazol-3-yl)phenyl)-3-(3-(5-methyl-2-((2,2,2-trifluoroethoxy)methyl)phenyl)-4-oxothiazolidin-2-ylidene)urea], the pest or weed control at 50 µg/cm2 in experiment [1] and in experiment [2] was 50 to 100% throughout.

Take `CC(C)c1ccc(N(C)C)cc1N1C(=O)CS/C1=N\C(=O)Nc1ccc(-c2ncn(-c3ccc(OC(F)(F)F)cn3)n2)cc1C#N` [Compound J266, (Z)-1-(2-Cyano-4-(1-(5-(trifluoromethoxy)pyridin-2-yl)-1H-1,2,4-triazol-3-yl)phenyl)-3-(3-(5-(dimethylamino)-2-isopropylphenyl)-4-oxothiazolidin-2-ylidene)urea]: the pest or weed control at 50 µg/cm2 in experiment [1] and in experiment [2] was 50 to 100% in each case.

Turning to `COC(C)c1ccc(C)cc1N1C(=O)CS/C1=N\C(=O)Nc1ccc(-c2ncn(-c3ccc(OC(F)(F)F)cn3)n2)cc1C#N` (stereo not shown) [Compound J267, (Z)-1-(2-Cyano-4-(1-(5-(trifluoromethoxy)pyridin-2-yl)-1H-1,2,4-triazol-3-yl)phenyl)-3-(3-(2-(1-methoxyethyl)-5-methylphenyl)-4-oxothiazolidin-2-ylidene)urea], the pest or weed control at 50 µg/cm2 in experiment [1] and in experiment [2] was 50 to 100% each time.
